Measurements as given in patent US20160346249A1 (priority 2012, published 2016).
pIC50: −log10 of the molar value.

Columns and labels:
[1] = NADPH dependent metabolism, human liver microsomes; assay type: in vitro ADME; settings: HLM
Description: (§1) Bicifadine (10 μM) was used as the positive control and the formation of the lactam metabolites of bicifadine (M-12) was monitored.

[2] = NADPH dependent metabolism, rat liver microsomes; assay type: in vitro ADME; settings: RLM
Description: as §1

[3] = system: FMO, rat liver microsome (RLM); assay: FMO dependent metabolism (pre-incubation temperature), rat liver microsomes; settings: for formation from benzydamine 200 μM, AUC ratio to internal standard (mean ± SD): RLM, positive control
Description: (§2) The microsomal incubation mixtures (ca. 0.2 mL) were prepared in triplicate in 0.1M potassium phosphate buffer (pH 7.4) containing 0.25 mg/mL microsomal protein (RLM and HLM), 1 mM EDTA, 4 mM MgCl2, and […]. Incubation mixtures were pre-incubated aerobically in a shaking water bath at 37° C. and 45° C. respectively for ca. 5 minutes. The reaction was initiated by the addition of NADPH (final concentration of 1 mM). […] For the positive controls, benzydamine (Sigma-Aldrich, St. Louis, Mo.) (final concentration 200 μM) was used in the incubation mixture. For the negative controls, water was used in the incubation mixtures instead of microsome protein. The mixtures were kept at ca. −20° C. before analysis by LC-MS/MS.
(§3) The incubation of benzydamine (positive control, 200 μM) was carried out concurrently and the formation of benzydamine N-oxide was monitored by LC-MS/MS.

[4] = human, in vivo; cited from earlier work
CYP2C19 = CYP2C19 (Homo sapiens, UniProt P33261); assay: Inhibition of human CYP activity in microsomes: (S)-mephenytoin 4′-hydroxylation; settings: read-out: IC50, CYP2C19 (S)-Mephenytoin 4′-hydroxylation; pooled human liver microsomes; 10 to 30 min at 37° C.
[5] = In vitro metabolism in human hepatocytes; settings: 100 μM
Description: Cryopreserved human hepatocytes (male) that are prepared by XenoTech, LLC (Lenexa, Kans.), are thawed on the day of use and resuspended in Waymouth's incubation media. The enzymatic activity of hepatocytes is monitored using 7-ethoxycoumarin and 7-hydroxycoumarin as substrates. […] The incubations are carried out for 4 hours with 1×10^6 viable cells/ml. […] At 0 and 4 hour, cell suspensions are extracted using two volumes of ice cold methanol. After centrifugation, the extracts are stored at −20° C. until further sample processing. The solvent in the samples are dried under a stream of nitrogen, and resuspended in methanol:water (1:1) before analysis.
The extracts of the 4 hour incubation mixture are analyzed by liquid chromatography/electrospray ionization-mass spectrometry (LC/ESI-MS) in the positive and negative ion modes to screen for possible metabolites. HPLC Methods 1 and 2 are used to find potential metabolites, and the HPLC and mass spectrometry systems are described in Table 56. The same instrumentation and methods in HPLC Method 1 are used in HPLC Method 2 with the exception that the mobile phases and gradient are changed to 0.4% HCOOH in H2O for mobile A and CH3OH for mobile phase B. The mass spectrometer is LCQ™ Ion Trap Mass Spectrometer and is in either the positive or negative electrospray mode with the ion spray set at 4.5 kV. The capillary temperature is 250° C., the nitrogen sheath gas flow rate is ˜80 unit, the auxiliary nitrogen gas flow rate is 20 unit, and the collision gas is helium.

[6] = system: FMO, human liver microsome (HLM); assay: FMO dependent metabolism (pre-incubation temperature), human liver microsomes; settings: HLM, positive control
Description: as §2, §3

[7] = eight weeks of treatment; cited from earlier work

Sequence of CYP2C19 (P33261 whole entry): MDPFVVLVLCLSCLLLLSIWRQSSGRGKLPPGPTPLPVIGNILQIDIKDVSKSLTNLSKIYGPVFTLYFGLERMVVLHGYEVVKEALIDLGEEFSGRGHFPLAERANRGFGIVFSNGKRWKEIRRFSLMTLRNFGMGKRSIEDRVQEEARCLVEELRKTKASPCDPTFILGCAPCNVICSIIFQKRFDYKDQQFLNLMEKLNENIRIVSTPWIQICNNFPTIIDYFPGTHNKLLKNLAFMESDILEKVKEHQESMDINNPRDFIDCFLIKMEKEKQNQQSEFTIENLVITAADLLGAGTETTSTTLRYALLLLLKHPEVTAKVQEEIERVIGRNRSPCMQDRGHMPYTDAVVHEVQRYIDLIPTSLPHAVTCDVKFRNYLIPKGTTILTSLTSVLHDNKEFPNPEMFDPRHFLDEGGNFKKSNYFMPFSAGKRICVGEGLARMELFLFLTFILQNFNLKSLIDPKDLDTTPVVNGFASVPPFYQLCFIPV

Q: With `O=C1NC[C@H]2C[C@@]12c1ccc(Cl)c(Cl)c1` [EB-10101 isomer, (1S,5R)-5-(3,4-dichlorophenyl)-3-azabicyclo[3.1.0]hexan-4-one] as the compound, how does the “area ratio isomer vs EB-10101” value [1] read?
A: Its value is “ca. 25 fold”.

Q: And the “area ratio isomer vs EB-10101” value [2]?
A: Its value is roughly 140 fold.

Q: And the “amount formed with 37° C. vs 45° C. pre-treatment” value ([3]; rat, 30 min, 10 μM, pH 7.4)?
A: The value was 7.3 fold.

Q: Which “benefit in comparison to placebo” value [4] does the source give for `COC[C@@H]1[C@@H](c2ccc(Cl)c(Cl)c2)C[C@@H]2CC[C@H]1N2` [GSK372475] here?
A: Its value is “failed to demonstrate a significant benefit in comparison to placebo”.

Q: With `CC[C@@]1(c2ccccc2)C(=O)NC(=O)N(Cc2ccccc2)C1=O` [(R)-N-3-benzyl-Phenobarb-ital] as the compound, how does the pIC50 (CYP2C19) read?
A: Its pIC50 is 6.52.

Q: For `O=c1ccc2ccc(O)cc2o1` [7-hydroxycoumarin, reference compound], which “metabolized after 4 hours incubation” value ([5]; activity control substrate) is on record?
A: Its value is 99.1%.

Q: For `CCOc1ccc2ccc(=O)oc2c1` [7-ethoxycoumarin, reference compound], which “metabolized after 4 hours incubation” value ([5]; male, human, hepatocytes, 4 h) is on record?
A: Its value is 68.9%.

Q: Which “formation from benzydamine 200 μM, AUC ratio to internal standard (mean ± SD)” value ([6]; pre-treatment 37° C.) does the source give for `C[N+](C)([O-])CCCOc1nn(Cc2ccccc2)c2ccccc12` [Benzydamine N-oxide, benzydamine N-oxide] here?
A: Its value is 35.70 ± 0.86.

Q: And the “formation from benzydamine 200 μM, AUC ratio to internal standard (mean ± SD)” value ([6]; pre-treatment 45° C.)?
A: The value was 7.68 ± 1.51.

Q: And the “formation from benzydamine 200 μM, AUC ratio to internal standard (mean ± SD)” value ([3]; pre-treatment 37° C.)?
A: Its value is 75.35 ± 0.75.

Q: And the “formation from benzydamine 200 μM, AUC ratio to internal standard (mean ± SD)” value ([3]; pre-treatment 45° C.)?
A: Its value is 15.86 ± 1.31.

Q: For `N[C@@H]1CC[C@@H](c2ccc(Cl)c(Cl)c2)c2ccccc21` [SEP-289], which “primary efficacy endpoint vs placebo (17-item HAM-D)” value [7] is on record?
A: Its value is “did not meet the primary efficacy endpoint compared to placebo”.
